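Five concentrations, 48 hours, 96-well plates. TGI marks complete inhibition of growth.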 Where a SMILES comes first, the peptide text is derived from it. The star is where a group is joined. Boc = CC(C)(C)OC(=O)*; OBn = c1ccc(CO*)cc1; Bn = c1ccc(C*)cc1
What was measured:
Assay in all cases: NCI-60 cell line screen, 48 h
786-0 renal = system: 786-0 renal
BT-549 breast = system: BT-549 breast
IGROV1 ovarian = system: IGROV1 ovarian
MDA-MB-231 breast = system: MDA-MB-231 breast
MDA-N = system: MDA-N
NCI-H23 lung = system: NCI-H23 lung
NCI/ADR-RES ovarian = system: NCI/ADR-RES ovarian
SW-620 colon = system: SW-620 colon
T-47D breast = system: T-47D breast
MOLT-4 leukemia = system: MOLT-4 leukemia
CCRF-CEM leukemia = system: CCRF-CEM leukemia
HL-60(TB) leukemia = system: HL-60(TB) leukemia

| SMILES | TGI (786-0 renal) [µM] | TGI (BT-549 breast) [µM] | TGI (IGROV1 ovarian) [µM] | TGI (MDA-MB-231 breast) [µM] | TGI (MDA-N) [µM] | TGI (NCI-H23 lung) [µM] | TGI (NCI/ADR-RES ovarian) [µM] | TGI (SW-620 colon) [µM] | TGI (T-47D breast) [µM] | TGI (MOLT-4 leukemia) [µM] | TGI (CCRF-CEM leukemia) [µM] | TGI (HL-60(TB) leukemia) [µM] |
| --- | --- | --- | --- | --- | --- | --- | --- | --- | --- | --- | --- | --- |
| N=C(/C=C/c1ccc(-c2cn3cc(/C=C/C(=N)N4CCOCC4)ccc3n2)cc1)N1CCOCC1 | > 100 | > 100 | > 100 | > 100 | > 100 | > 100 | > 100 | > 100 | > 100 | – | – | – |
| CC1(C)COC(c2cccc(C3=NC(C)(C)CO3)c2)=N1 | > 100 | > 100 | > 100 | > 100 | – | > 100 | > 100 | > 100 | > 100 | > 100 | – | – |
| CC(C)CC(NC(=O)C(Cc1ccccc1)NC(=O)C(COCc1ccccc1)NC(=O)OC(C)(C)C)C(=O)OCc1ccccc1 (stereo not drawn) (Boc-Ser(Bn)-Phe-Leu-OBn; configuration not given here) | 30.8 | – | 31.8 | 93 | > 100 | 43.2 | > 100 | 56.7 | > 100 | 33.4 | 63.7 | 15.3 |
| CCCCc1ccc(N2C(=O)c3cc(C)cnc3S2(=O)=O)cc1 | > 100 | – | > 100 | > 100 | > 100 | > 100 | > 100 | > 100 | > 100 | > 100 | – | > 100 |
| O=c1[nH]c2ccc(CC(=S)N3CCN(c4ccccc4)CC3)cc2s1 | > 100 | > 100 | > 100 | > 100 | > 100 | > 100 | 69.3 | > 100 | – | > 100 | > 100 | > 100 |
| Cn1c2ccccc2n2c(=O)c(-c3ccc(O)cc3)nnc12 | > 100 | > 100 | > 100 | > 100 | – | > 100 | > 100 | > 100 | > 100 | > 100 | > 100 | > 100 |
| Fc1ccc(C(=NCc2ccccc2)N2CCOCC2)cc1 | > 100 | > 100 | > 100 | > 100 | > 100 | > 100 | > 100 | > 100 | – | > 100 | > 100 | > 100 |
| Cc1cccc(Nc2cn(CCOc3ccccc3)c(=O)[nH]c2=O)c1 | > 100 | – | 54.9 | – | > 100 | > 100 | 9.06 | > 100 | – | > 100 | > 100 | – |
| COc1ccc(NS(=O)C2CCCCC2)cc1 (centres undefined) | > 100 | – | > 100 | > 100 | – | > 100 | > 100 | > 100 | – | > 100 | > 100 | > 100 |
| Cc1c(Cl)cccc1NC(=O)C(=O)C1C(=O)NC(=O)NC1=O | > 100 | – | > 100 | – | – | > 100 | – | > 100 | – | > 100 | > 100 | > 100 |
| CC(C)C[C@H](NC(=O)[C@@H](Cc1cccc2ccccc12)NC(=O)N1CCOCC1)B(O)O | 19.7 | 18.1 | 23.5 | 20.3 | – | 8.94 | > 100 | 12.2 | 5.43 | > 100 | 15.2 | > 24.6 |
| COC(=O)C1Cc2c([nH]c3ccccc23)-c2[nH]c3ccccc3c2CC(NC(C)=O)C(=O)NCC(=O)N1 (centres undefined) | > 100 | – | > 100 | > 100 | > 100 | > 100 | > 100 | > 100 | > 100 | > 100 | > 100 | – |
| CCCCN(CCCC)CC(=O)c1ccc2cc(Cl)c3ccccc3c2c1 | > 100 | 41.8 | 62 | > 100 | – | > 100 | > 100 | > 100 | 76.6 | > 100 | > 100 | > 100 |
| COC(=O)CSc1[nH]c2nc(C)nc(Nc3ccccc3)c2c1C#N | > 10 | – | > 10 | > 10 | > 10 | > 10 | – | > 10 | > 10 | > 10 | > 10 | > 10 |
| CCOC(=O)c1ccc(N=C/C=C(\Nc2ccc(C(=O)OCC)cc2)c2ccc3ccccc3c2)cc1 | 64.1 | 42.4 | > 100 | 80.6 | – | 54 | 70.3 | > 100 | 43.2 | 16.1 | 46.5 | 70.8 |
| N#CC(C(=O)c1ccccc1F)c1nc2cc(C(F)(F)F)ccc2s1 (centres undefined) | 60.5 | 69.4 | > 100 | > 100 | – | 53.9 | > 100 | 82.4 | > 100 | > 100 | – | – |
| CCOC(=O)c1c(OCC)[nH]c(=O)c(C(c2ccc(F)cc2)c2c(O)c(C(=O)OCC)c(OCC)[nH]c2=O)c1O | 39.7 | 23.6 | 30.3 | 29.8 | – | 43.6 | > 100 | 51.1 | 32.7 | 71 | > 100 | 54.3 |
| CC(=O)OC1COC(N2C(=O)C(=O)c3cc(Br)c([N+](=O)[O-])cc32)C(OC(C)=O)C1OC(C)=O (centres undefined) | > 100 | – | > 100 | – | – | > 100 | – | > 100 | – | 88.5 | 89.2 | > 100 |
| CC(=O)OC(C)(C)C1CCC(C)(C(O)COc2ccc(CCNC(=O)c3ccccc3)cc2)O1 (centres undefined) | > 100 | – | > 100 | – | – | > 100 | – | > 100 | – | 42.5 | > 100 | 67.8 |
| CCC1=C(C)C2=NC1=CC1=NC(=C(CC)/C1=C/O)C=C1N=C3C(=C1C)C(=O)C(C(=O)OC)C3=C1NC(=C2)C(C)C1CCC(=O)OC (centres undefined) | > 100 | > 100 | > 100 | > 100 | > 100 | > 100 | – | > 100 | > 100 | > 100 | > 100 | > 100 |
